Among the data in ChEMBL document CHEMBL1137558, “Synthesis and biological evaluation of new 2-arylcarbonyl-3-trifluoromethylquinoxaline 1,4-di-N-oxide derivatives and their reduced analogues” (2007) are GI50, TGI and CC50 values, retold here.

A short description of one assay: Anticancer activity against leukemia cells. It is filed as functional. Conditions: Homo sapiens, Leukemia cell.
In the case of `O=C(c1ccccc1)c1c(C(F)(F)F)[n+]([O-])c2ccc(C(F)(F)F)cc2[n+]1[O-]`, growth was halved (GI50) at 240 nM.
Compound `O=C(c1ccc2ccccc2c1)c1c(C(F)(F)F)[n+]([O-])c2ccc(F)cc2[n+]1[O-]` came in with a concentration for 50% growth inhibition (GI50) of 440 nM.
For the compound `O=C(c1ccc2ccccc2c1)c1c(C(F)(F)F)[n+]([O-])c2ccc(C(F)(F)F)cc2[n+]1[O-]`, the GI50 amounted to 260 nM.
`O=C(c1ccco1)c1nc2cc(C(F)(F)F)ccc2[n+]([O-])c1C(F)(F)F` showed a concentration for 50% growth inhibition (GI50) of 51100 nM.

The nature of the next assay: Anticancer activity against nonsmall lung cancer cells. The format is functional. Conditions: Homo sapiens, Cancer cell lines.
Compound `O=C(c1ccccc1)c1c(C(F)(F)F)[n+]([O-])c2ccc(C(F)(F)F)cc2[n+]1[O-]` gave a GI50 of 640 nM.
Take `O=C(c1ccc2ccccc2c1)c1c(C(F)(F)F)[n+]([O-])c2ccc(F)cc2[n+]1[O-]`: halving of growth (GI50) required 1540 nM.
With `O=C(c1ccc2ccccc2c1)c1c(C(F)(F)F)[n+]([O-])c2ccc(C(F)(F)F)cc2[n+]1[O-]`, the GI50 was 1420 nM.
As to `O=C(c1ccco1)c1nc2cc(C(F)(F)F)ccc2[n+]([O-])c1C(F)(F)F`, it took 48100 nM to inhibit growth by half (GI50).

A further assay in a line: Anticancer activity against colon cancer cells. The format is functional. As to conditions: Homo sapiens, Cancer cell lines.
In the case of `O=C(c1ccccc1)c1c(C(F)(F)F)[n+]([O-])c2ccc(C(F)(F)F)cc2[n+]1[O-]`, the GI50 stood at 460 nM.
`O=C(c1ccc2ccccc2c1)c1c(C(F)(F)F)[n+]([O-])c2ccc(F)cc2[n+]1[O-]`: growth was halved (GI50) at 740 nM. This GI50 lies about 1.6-fold higher than the previous one.
Consider `O=C(c1ccc2ccccc2c1)c1c(C(F)(F)F)[n+]([O-])c2ccc(C(F)(F)F)cc2[n+]1[O-]`, for which growth was halved (GI50) at 660 nM.
Regarding `O=C(c1ccco1)c1nc2cc(C(F)(F)F)ccc2[n+]([O-])c1C(F)(F)F`, growth was halved (GI50) at 41400 nM.

A short description of the next assay: Anticancer activity against CNS cancer cells. The format is functional. Conditions: Homo sapiens, Cancer cell lines.
For `O=C(c1ccccc1)c1c(C(F)(F)F)[n+]([O-])c2ccc(C(F)(F)F)cc2[n+]1[O-]`, the GI50 is 690 nM.
On the same count and under the same terms, the value for `O=C(c1ccc2ccccc2c1)c1c(C(F)(F)F)[n+]([O-])c2ccc(F)cc2[n+]1[O-]` was 1610 nM.
Consider `O=C(c1ccc2ccccc2c1)c1c(C(F)(F)F)[n+]([O-])c2ccc(C(F)(F)F)cc2[n+]1[O-]`, for which the GI50 came out at 950 nM. Against the preceding compound, the GI50 is about 1.7-fold lower.
`O=C(c1ccco1)c1nc2cc(C(F)(F)F)ccc2[n+]([O-])c1C(F)(F)F` showed a 50% growth inhibitory concentration (GI50) of 45500 nM. This GI50 lies about 48-fold higher than the previous one.

The nature of the next assay: Anticancer activity against melanoma cells. The format is functional. Conditions: Homo sapiens, Melanoma cell.
As to `O=C(c1ccccc1)c1c(C(F)(F)F)[n+]([O-])c2ccc(C(F)(F)F)cc2[n+]1[O-]`, the 50% growth inhibitory concentration (GI50) came to 1130 nM. That is a single-digit micromolar value.
`O=C(c1ccc2ccccc2c1)c1c(C(F)(F)F)[n+]([O-])c2ccc(F)cc2[n+]1[O-]`: the GI50 came to 1120 nM.
`O=C(c1ccc2ccccc2c1)c1c(C(F)(F)F)[n+]([O-])c2ccc(C(F)(F)F)cc2[n+]1[O-]` had a GI50 of 970 nM.
As for `O=C(c1ccco1)c1nc2cc(C(F)(F)F)ccc2[n+]([O-])c1C(F)(F)F`, halving of growth (GI50) required 42900 nM.

The next assay is described as follows: Anticancer activity against ovarian cancer cells. The format is functional. Conditions: Homo sapiens, Cancer cell lines.
In the case of `O=C(c1ccccc1)c1c(C(F)(F)F)[n+]([O-])c2ccc(C(F)(F)F)cc2[n+]1[O-]`, the GI50 was determined as 580 nM.
On to `O=C(c1ccc2ccccc2c1)c1c(C(F)(F)F)[n+]([O-])c2ccc(F)cc2[n+]1[O-]`, for which halving of growth (GI50) required 1200 nM. This GI50 lies about 2.1-fold higher than the previous one.
Still for that read-out and setting: the value for `O=C(c1ccc2ccccc2c1)c1c(C(F)(F)F)[n+]([O-])c2ccc(C(F)(F)F)cc2[n+]1[O-]` was 470 nM; that for `O=C(c1ccco1)c1nc2cc(C(F)(F)F)ccc2[n+]([O-])c1C(F)(F)F` was 42500 nM.

The next assay in a line: Anticancer activity against renal cancer cells. It is filed as functional. Conditions: Homo sapiens, Cancer cell lines.
`O=C(c1ccccc1)c1c(C(F)(F)F)[n+]([O-])c2ccc(C(F)(F)F)cc2[n+]1[O-]` showed a GI50 of 330 nM.
As for `O=C(c1ccc2ccccc2c1)c1c(C(F)(F)F)[n+]([O-])c2ccc(F)cc2[n+]1[O-]`, the GI50 stood at 1480 nM.
As to `O=C(c1ccc2ccccc2c1)c1c(C(F)(F)F)[n+]([O-])c2ccc(C(F)(F)F)cc2[n+]1[O-]`, growth was halved (GI50) at 580 nM. Compared with the last compound, the GI50 is about 2.6-fold lower.
Turning to `O=C(c1ccco1)c1nc2cc(C(F)(F)F)ccc2[n+]([O-])c1C(F)(F)F`, it took 60600 nM to inhibit growth by half (GI50).

A short description of the next assay: Anticancer activity against prostate cancer cells. As to conditions: Homo sapiens, Cancer cell lines. It is filed as functional.
`O=C(c1ccccc1)c1c(C(F)(F)F)[n+]([O-])c2ccc(C(F)(F)F)cc2[n+]1[O-]` had a GI50 of 270 nM.
For `O=C(c1ccc2ccccc2c1)c1c(C(F)(F)F)[n+]([O-])c2ccc(F)cc2[n+]1[O-]`, halving of growth (GI50) required 1620 nM. This GI50 lies about 6-fold higher than the previous one.
`O=C(c1ccc2ccccc2c1)c1c(C(F)(F)F)[n+]([O-])c2ccc(C(F)(F)F)cc2[n+]1[O-]` registered a GI50 of 570 nM.
On to `O=C(c1ccco1)c1nc2cc(C(F)(F)F)ccc2[n+]([O-])c1C(F)(F)F`, for which the 50% growth inhibitory concentration (GI50) came to 51900 nM.

Another assay can be described thus: Anticancer activity against breast cancer cells. The format is functional. As to conditions: Homo sapiens, Cancer cell lines.
As for `O=C(c1ccccc1)c1c(C(F)(F)F)[n+]([O-])c2ccc(C(F)(F)F)cc2[n+]1[O-]`, growth was halved (GI50) at 540 nM.
In turn, `O=C(c1ccc2ccccc2c1)c1c(C(F)(F)F)[n+]([O-])c2ccc(F)cc2[n+]1[O-]` displayed a GI50 of 1700 nM.
The compound `O=C(c1ccc2ccccc2c1)c1c(C(F)(F)F)[n+]([O-])c2ccc(C(F)(F)F)cc2[n+]1[O-]` displayed a GI50 of 990 nM.
In the case of `O=C(c1ccco1)c1nc2cc(C(F)(F)F)ccc2[n+]([O-])c1C(F)(F)F`, the GI50 amounted to 32000 nM. This GI50 lies about 32-fold higher than the previous one.

The nature of a further assay: Anticancer activity against human NCI60 cells. The format is functional.
Details: not given
For `O=C(c1ccccc1)c1c(C(F)(F)F)[n+]([O-])c2ccc(C(F)(F)F)cc2[n+]1[O-]`, it took 510 nM to inhibit growth by half (GI50) and the TGI worked out at 1230 nM.
`O=C(c1ccc2ccccc2c1)c1c(C(F)(F)F)[n+]([O-])c2ccc(F)cc2[n+]1[O-]` gave a GI50 of 1150 nM and a TGI of 2820 nM.
As to `O=C(c1ccc2ccccc2c1)c1c(C(F)(F)F)[n+]([O-])c2ccc(C(F)(F)F)cc2[n+]1[O-]`, growth was halved (GI50) at 720 nM and total growth inhibition (TGI) required 1910 nM.
Take `O=C(c1ccco1)c1nc2cc(C(F)(F)F)ccc2[n+]([O-])c1C(F)(F)F`: growth was halved (GI50) at 45700 nM and the TGI turned out to be 97700 nM.

Still in this assay, the particulars now being: read-out: LC50 (the source's name).
With `O=C(c1ccccc1)c1c(C(F)(F)F)[n+]([O-])c2ccc(C(F)(F)F)cc2[n+]1[O-]`, the CC50 turned out to be 3890 nM.
As to `O=C(c1ccc2ccccc2c1)c1c(C(F)(F)F)[n+]([O-])c2ccc(F)cc2[n+]1[O-]`, the CC50 turned out to be 8320 nM.
For the compound `O=C(c1ccc2ccccc2c1)c1c(C(F)(F)F)[n+]([O-])c2ccc(C(F)(F)F)cc2[n+]1[O-]`, the CC50 was determined as 5500 nM.
As for `O=C(c1ccco1)c1nc2cc(C(F)(F)F)ccc2[n+]([O-])c1C(F)(F)F`, the CC50 is above 100000 nM.
